Reference: PubChem BioAssay AID1259407 (Chemical Carcinogenesis Research Information System (CCRIS), 2018)
Active and inactive are the calls of the source. How the calls were made is not given here.

System: CCRIS mutagenicity, Ames/micronucleus/aberration tests
Assay: CCRIS mutagenicity studies
[1] = Test System: AMES SALMONELLA TYPHIMURIUM, Strain/Indicator: TA98, Metabolic Activation: NONE, Method: PREINCUBATION
[2] = Test System: AMES SALMONELLA TYPHIMURIUM, Strain/Indicator: TA100, Metabolic Activation: NONE, Method: PREINCUBATION
[3] = Test System: AMES SALMONELLA TYPHIMURIUM, Strain/Indicator: TA1535, Metabolic Activation: NONE, Method: PREINCUBATION

Question: Which mutagenic call (End Point: IN VITRO CHROMOSOMAL ABERRATIONS, Test System: CHO CELLS, Metabolic Activation: NONE) does the source give for `NC(=O)N/N=C/c1ccc([N+](=O)[O-])o1` here?
Answer: active; positive

Question: What about the mutagenic call (End Point: IN VITRO CHROMOSOMAL ABERRATIONS, Test System: CHO CELLS, Metabolic Activation: RAT, LIVER, S-9, AROCLOR 1254) of the same molecule?
Answer: active; positive; precipitation occurred at 500 ug/ml

Question: And the mutagenic call (Test System: AMES SALMONELLA TYPHIMURIUM, Strain/Indicator: TA97, Metabolic Activation: NONE, Method: FLUCTUATION TEST)?
Answer: active; positive

Question: And the mutagenic call (Test System: AMES SALMONELLA TYPHIMURIUM, Strain/Indicator: TA98(1,8-DNP6), Metabolic Activation: NONE, Method: STANDARD PLATE)?
Answer: active; positive

Question: And the mutagenic call (Test System: AMES SALMONELLA TYPHIMURIUM, Strain/Indicator: TA98(1,8-DNP6), Metabolic Activation: RAT, LIVER, S-9, 3-METHYLCHOLANTHRENE, Method: STANDARD PLATE)?
Answer: active; positive

Question: What about the mutagenic call (Test System: AMES SALMONELLA TYPHIMURIUM, Strain/Indicator: TA98(NR), Metabolic Activation: NONE, Method: STANDARD PLATE) of the same molecule?
Answer: active; positive

Question: What about the mutagenic call (Test System: AMES SALMONELLA TYPHIMURIUM, Strain/Indicator: TA98(NR), Metabolic Activation: RAT, LIVER, S-9, 3-METHYLCHOLANTHRENE, Method: STANDARD PLATE) of the same molecule?
Answer: active; positive

Question: What about the mutagenic call (Test System: AMES SALMONELLA TYPHIMURIUM, Strain/Indicator: TA98, Metabolic Activation: HAMSTER, LIVER, S-9, AROCLOR 1254 (10%), Method: PREINCUBATION) of the same molecule?
Answer: active; positive

Question: And the mutagenic call (Test System: AMES SALMONELLA TYPHIMURIUM, Strain/Indicator: TA98, Metabolic Activation: HAMSTER, LIVER, S-9, AROCLOR 1254, Method: PREINCUBATION)?
Answer: active; positive

Question: What about the mutagenic call [1] of the same molecule?
Answer: active; positive

Question: And the mutagenic call (Test System: AMES SALMONELLA TYPHIMURIUM, Strain/Indicator: TA98, Metabolic Activation: NONE, Method: STANDARD PLATE)?
Answer: active; positive

Question: And the mutagenic call (Test System: AMES SALMONELLA TYPHIMURIUM, Strain/Indicator: TA98, Metabolic Activation: RAT LIVER S-9, AROCLOR 1254, Method: STANDARD PLATE)?
Answer: active; positive

Question: What about the mutagenic call (Test System: AMES SALMONELLA TYPHIMURIUM, Strain/Indicator: TA98, Metabolic Activation: RAT, LIVER, S-9, 3-METHYLCHOLANTHRENE, Method: STANDARD PLATE) of the same molecule?
Answer: active; positive

Question: And the mutagenic call (Test System: AMES SALMONELLA TYPHIMURIUM, Strain/Indicator: TA98, Metabolic Activation: RAT, LIVER, S-9, AROCLOR 1254 (10%), Method: PREINCUBATION)?
Answer: active; positive

Question: And the mutagenic call (Test System: AMES SALMONELLA TYPHIMURIUM, Strain/Indicator: TA98, Metabolic Activation: RAT, LIVER, S-9, AROCLOR 1254, Method: PREINCUBATION)?
Answer: active; positive

Question: And the mutagenic call (Test System: AMES SALMONELLA TYPHIMURIUM, Strain/Indicator: TA98, Metabolic Activation: RAT, LIVER, S-9, KC500 OR PHENOBARBITAL, Method: LIQUID SUSPENSION)?
Answer: active; positive

Question: And the mutagenic call (Test System: AMES SALMONELLA TYPHIMURIUM, Strain/Indicator: TA100, Metabolic Activation: HAMSTER, LIVER, S-9, AROCLOR 1254 (10%), Method: PREINCUBATION)?
Answer: active; positive

Question: What about the mutagenic call (Test System: AMES SALMONELLA TYPHIMURIUM, Strain/Indicator: TA100, Metabolic Activation: HAMSTER, LIVER, S-9, AROCLOR 1254, Method: PREINCUBATION) of the same molecule?
Answer: active; positive

Question: What about the mutagenic call [2] of the same molecule?
Answer: active; positive

Question: And the mutagenic call (Test System: AMES SALMONELLA TYPHIMURIUM, Strain/Indicator: TA100, Metabolic Activation: RAT, LIVER, S-9, AROCLOR 1254 (10%), Method: PREINCUBATION)?
Answer: active; positive

Question: And the mutagenic call (Test System: AMES SALMONELLA TYPHIMURIUM, Strain/Indicator: TA100, Metabolic Activation: RAT, LIVER, S-9, AROCLOR 1254, Method: PREINCUBATION)?
Answer: active; positive

Question: What about the mutagenic call (Test System: AMES SALMONELLA TYPHIMURIUM, Strain/Indicator: TA100, Metabolic Activation: RAT, LIVER, S-9, KC500 OR PHENOBARBITAL, Method: LIQUID SUSPENSION) of the same molecule?
Answer: active; positive

Question: What about the mutagenic call (Test System: AMES SALMONELLA TYPHIMURIUM, Strain/Indicator: TA102, Metabolic Activation: NONE, Method: STANDARD PLATE) of the same molecule?
Answer: active; positive

Question: And the mutagenic call (Test System: AMES SALMONELLA TYPHIMURIUM, Strain/Indicator: TA102, Metabolic Activation: RAT LIVER S-9, AROCLOR 1254, Method: STANDARD PLATE)?
Answer: active; positive

Question: And the mutagenic call (Test System: AMES SALMONELLA TYPHIMURIUM, Strain/Indicator: TA1535, Metabolic Activation: HAMSTER, LIVER, S-9, AROCLOR 1254 (10%), Method: PREINCUBATION)?
Answer: active; positive

Question: What about the mutagenic call (Test System: AMES SALMONELLA TYPHIMURIUM, Strain/Indicator: TA1535, Metabolic Activation: HAMSTER, LIVER, S-9, AROCLOR 1254, Method: PREINCUBATION) of the same molecule?
Answer: active; positive

Question: What about the mutagenic call [3] of the same molecule?
Answer: inactive; negative

Question: What about the mutagenic call (Test System: AMES SALMONELLA TYPHIMURIUM, Strain/Indicator: TA1535, Metabolic Activation: RAT, LIVER, S-9, AROCLOR 1254 (10%), Method: PREINCUBATION) of the same molecule?
Answer: active; positive

Question: What about the mutagenic call (Test System: AMES SALMONELLA TYPHIMURIUM, Strain/Indicator: TA1535, Metabolic Activation: RAT, LIVER, S-9, AROCLOR 1254, Method: PREINCUBATION) of the same molecule?
Answer: active; positive

Question: And the mutagenic call (Test System: AMES SALMONELLA TYPHIMURIUM, Strain/Indicator: TA1537, Metabolic Activation: RAT, LIVER, S-9, AROCLOR 1254, Method: PREINCUBATION)?
Answer: inactive; negative

Question: What about the mutagenic call (Test System: E. COLI, Strain/Indicator: EE97, Metabolic Activation: NONE, Method: FLUCTUATION TEST) of the same molecule?
Answer: active; positive

Question: And the mutagenic call (Test System: E. COLI, Strain/Indicator: WP2, Metabolic Activation: NONE, Method: FLUCTUATION TEST)?
Answer: active; positive

Question: And the mutagenic call (Test System: E. COLI, Strain/Indicator: WP2, Metabolic Activation: NONE, Method: SPOT)?
Answer: active; positive

Question: And the mutagenic call (Test System: E. COLI, Strain/Indicator: WP2, Metabolic Activation: NONE, Method: STANDARD PLATE)?
Answer: active; positive

Question: And the mutagenic call (Test System: E. COLI, Strain/Indicator: WP2 UVRA, Metabolic Activation: NONE, Method: FLUCTUATION)?
Answer: active; positive

Question: And the mutagenic call (Test System: E. COLI, Strain/Indicator: WP2 UVRA, Metabolic Activation: NONE, Method: SPOT)?
Answer: active; positive

Question: And the mutagenic call (Test System: E. COLI, Strain/Indicator: WP2 UVRA, Metabolic Activation: NONE, Method: STANDARD PLATE)?
Answer: active; positive

Question: What about the mutagenic call (Test System: MOUSE LYMPHOMA, Strain/Indicator: L5178Y (TK+/TK-), Metabolic Activation: NONE, Method: SUSPENSION/PLATE) of the same molecule?
Answer: active; positive

Question: Which results are given for `CCC(O)CN` (stereo not given)?
Answer: mutagenic call (Test System: AMES SALMONELLA TYPHIMURIUM, Strain/Indicator: TA97, Metabolic Activation: HAMSTER, LIVER, S-9, AROCLOR 1254 (10 OR 30%), Method: PREINCUBATION): inactive; negative; mutagenic call (Test System: AMES SALMONELLA TYPHIMURIUM, Strain/Indicator: TA97, Metabolic Activation: NONE, Method: PREINCUBATION): inactive; negative; mutagenic call (Test System: AMES SALMONELLA TYPHIMURIUM, Strain/Indicator: TA97, Metabolic Activation: RAT, LIVER, S-9, AROCLOR 1254 (10 OR 30%), Method: PREINCUBATION): inactive; negative; mutagenic call (Test System: AMES SALMONELLA TYPHIMURIUM, Strain/Indicator: TA98, Metabolic Activation: HAMSTER, LIVER, S-9, AROCLOR 1254 (10 OR 30%), Method: PREINCUBATION): inactive; negative; mutagenic call [1]: inactive; negative; mutagenic call (Test System: AMES SALMONELLA TYPHIMURIUM, Strain/Indicator: TA98, Metabolic Activation: RAT, LIVER, S-9, AROCLOR 1254 (10 OR 30%), Method: PREINCUBATION): inactive; negative; mutagenic call (Test System: AMES SALMONELLA TYPHIMURIUM, Strain/Indicator: TA100, Metabolic Activation: HAMSTER, LIVER, S-9, AROCLOR 1254 (10 OR 30%), Method: PREINCUBATION): inactive; negative; mutagenic call [2]: inactive; negative; mutagenic call (Test System: AMES SALMONELLA TYPHIMURIUM, Strain/Indicator: TA100, Metabolic Activation: RAT, LIVER, S-9, AROCLOR 1254 (10 OR 30%), Method: PREINCUBATION): inactive; negative; mutagenic call (Test System: AMES SALMONELLA TYPHIMURIUM, Strain/Indicator: TA1535, Metabolic Activation: HAMSTER, LIVER, S-9, AROCLOR 1254 (10 OR 30%), Method: PREINCUBATION): inactive; negative; mutagenic call [3]: inactive; negative; mutagenic call (Test System: AMES SALMONELLA TYPHIMURIUM, Strain/Indicator: TA1535, Metabolic Activation: RAT, LIVER, S-9, AROCLOR 1254 (10 OR 30%), Method: PREINCUBATION): inactive; negative
